Measured values as given in patent US11026944B2, “Compositions and methods for treating insomnia” (Eisai R&D Management Co., Ltd., priority 2014, dated 2021).
Where two headings read alike, the source gives them in different places.

Experiments:
[1] = Single daily dose PK in human subjects (summary statements); assay type: in vivo; details: plasma, oral; for Cmax: read-out: mean maximum plasma concentration (Cmax); for half-life: read-out: mean t1/2 (converted); for Tmax: read-out: mean time to maximum plasma concentration (tmax)
[2] = system: subjects with primary insomnia; experiment: 001 Study Part B: polysomnography (LPS, WASO, SE); assay type: in vivo, human
Excerpt: For Part B, 58 otherwise healthy subjects with primary insomnia were randomized across three cohorts, and stratified by gender. Part B also included an active control (zolpidem) and matching placebo. In each cohort, there were approximately 12 subjects in the compound A/zolpidem-matched placebo group, approximately four subjects in the zolpidem/compound A-matched placebo group, and approximately four subjects in the compound A-matched placebo/zolpidem-matched placebo group. Part B dosing occurred in the evening, 30 minutes prior to the sleep period. The starting dose for Part B was 3 dose levels that determined to be safe and well tolerated in Part A. Subsequent dose levels in Part B were determined based on the PD results of the first cohort in Part B and PD and safety results from at least 3 completed higher dose cohorts in Part A. Each cohort in Part B was divided into at least two groups, with dosing of each group staggered by a minimum of 2 days.
(§1) After the initial Screening visit, eligible subjects were scheduled to return to the clinic for 2 days during the Screening Period to conduct screening/baseline PSGs. These two days occurred at least 3 days after the initial Screening visit and within a window from Day-7 to Day-6 (±2 days). The first PSG was used to screen for sleep apnea and periodic limb movements in sleep (PLMS) and serve as the first baseline PSG. The second PSG was used as the second baseline PSG. Specific PSG variables were used to determine whether subjects met PSG inclusion criteria, and the average of PSG variables from these two PSGs was used as Baseline for this PD measure. Subjects who had met PSG inclusion criteria returned to the clinic on Day-1 for additional baseline procedures and randomization. Subjects were not allowed to nap on Day 1. On the evening of Day 1, after fasting a minimum of 3 hours, study drug was administered 30 minutes prior to the subject's habitual bedtime (lights-out), as calculated from the sleep diary for the first PSG during the Screening Period. PK blood samples were collected at prespecified timepoints, and PD assessments were performed. PSG was recorded on Day 1, postdose. Subjects were administered additional PD assessments each morning on Day 1 through Day 6. These assessments included the KSS, DSST, and PVT, in order to assess daytime sleepiness, level of alertness, and ability to concentrate. The KSS and DSST were also administered 5 minutes predose and 25 minutes postdose on Day 1, just prior to lights-out. Waketime Questionnaires were administered after the PD assessments within 15 minutes of lights-on, on Day 1 to Day 6. Time and duration of naps was recorded on Day 2.
In addition, PSG was performed during the Screening Period at Days-7 and -6 (±2 days), and postdose on Day 1. An 8-hour diagnostic PSG consisting of electroencephalogram (EEG), electrooculogram (EOG), electromyogram (EMG), ECGs, leg electrodes, and measures of respiratory function (airflow, respiratory effort, and oxygen saturation) were performed starting at the subject's habitual bedtime as determined from the sleep diary for the 3 nights immediately prior to the first PSG on Day-7 (±2 days). PSG variables from this night were used to screen for sleep apnea and PLMS. On Day-6 (±2) and postdose on Day1, standard PSGs (i.e., not including leg electrodes or measures of respiratory function other than oxygen saturation) were performed. Specified PSG variables from these two PSGs conducted during the Screening Period were used to determine whether subjects met PSG inclusion criteria. The average of PSG variables from these two PSGs conducted during the Screening Period were used as baseline PSG values. The key PD parameters such as PSG LPS, TST, SE, and WASO have been obtained from all PSG recordings.

[3] = system: subjects with primary insomnia; experiment: 001 Study Part B: next day KSS, DSST, PVT; assay type: in vivo, human
Excerpt: as §1
Part B subjects were administered the KSS, DSST, and PVT within 15 minutes after lights-on specifically in that order, on each morning from Day 1 through Day 6, followed by the Waketime Questionnaire. The KSS and DSST were also administered 5 minutes predose and 25 minutes postdose on Day 1 (just prior to lights-out).

Cc1ncc(OC[C@@]2(c3cccc(F)c3)C[C@H]2C(=O)Nc2ccc(F)cn2)c(C)n1 [Compound A, (1R,2 S)-2-(((2,4-dimethylpyrimidin-5-yl)oxy)methyl)-2-(3-fluorophenyl)-N-(5-fluoropyridin-2-yl) cyclopropanecarboxamide]
AUC(0-t) ([1]; 2.5 mg, single 2.5 mg daily dose, read-out: mean AUC(0-24)): 57 to 60 ng·h/mL | AUC(0-t) ([1]; 2.5 mg, single 2.5 mg daily dose, read-out: mean AUC(0-t)): 80 to 95 ng·h/mL | AUC(0-t) ([1]; 5 mg, single 5 mg daily dose, read-out: mean AUC(0-24)): 95 to 110 ng·h/mL | AUC(0-t) ([1]; 5 mg, single 5 mg daily dose, read-out: mean AUC(0-t)): ~128 ng·h/mL | AUC(0-t) ([1]; 10 mg, single 10 mg daily dose, read-out: mean AUC(0-24)): 160 to 190 ng·h/mL | AUC(0-t) ([1]; 10 mg, single 10 mg daily dose, read-out: mean AUC(0-t)): 280 to 510 ng·h/mL | AUC(0-inf) ([1]; single 2.5 mg daily dose): 80 to 103 ng·h/mL | Cmax ([1]; single 2.5 mg daily dose): 10 to 18 ng/mL | half-life ([1]; single 2.5 mg daily dose): 30 to 37 h | Tmax ([1]; single 2.5 mg daily dose): 1 to 2 h | AUC(0-inf) ([1]; single 5 mg daily dose): ~150 ng·h/mL | Cmax ([1]; single 5 mg daily dose): 19 to 23 ng/mL | half-life ([1]; single 5 mg daily dose): ~31 h | Tmax ([1]; single 5 mg daily dose): 1 to 2 h | AUC(0-inf) ([1]; single 10 mg daily dose): 310 to 530 ng·h/mL | Cmax ([1]; single 10 mg daily dose): 30 to 58 ng/mL | half-life ([1]; single 10 mg daily dose): 56 to 60 h | Tmax ([1]; single 10 mg daily dose): 1 to 3.25 h | LPS reduction relative to Baseline ([2]; single 2.5 mg evening dose): approximately 30 minutes | WASO reduction relative to Baseline ([2]; single 2.5 mg evening dose): approximately 30 minutes | LPS reduction relative to Baseline ([2]; single 10 mg evening dose): approximately 30 minutes | WASO reduction relative to Baseline ([2]; single 10 mg evening dose): approximately 30 minutes | LPS reduction relative to Baseline ([2]; single 25 mg evening dose): approximately 45 minutes | WASO reduction relative to Baseline ([2]; single 25 mg evening dose): more than 45 minutes | next day effects on KSS, DSST, or PVT ([3]; any dose of compound A (2.5, 10, 25 mg), zolpidem 10 mg): no clinically significant next day effects | measures of next-day residual sleepiness ([3]; single 25 mg evening dose): some individuals at this dose exhibited increases from baseline
